Source: ChEMBL document CHEMBL1157874, “Synthesis, spectroscopic and biological studies on the new symmetric Schiff base derived from 2,6-diformyl-4-methylphenol with N-aminopyrimidine” (2010)
Converted amounts (≈) assume the structure as drawn.

Assays:
Format in all cases: functional
[1] = system: Staphylococcus aureus; test: Antibacterial activity against Staphylococcus aureus ATCC 6538 after 18 hrs by broth microdilution assay; conditions: ATCC 6538, 18 h
[2] = system: Staphylococcus aureus; test: Antibacterial activity against Staphylococcus aureus ATCC 25923 after 18 hrs by broth microdilution assay; conditions: ATCC 25923, 18 h
[3] = system: Escherichia coli; test: Antibacterial activity against Escherichia coli ATCC 4230 after 18 hrs by broth microdilution assay; conditions: ATCC 4230, 18 h
[4] = system: Micrococcus luteus; test: Antibacterial activity against Micrococcus luteus ATCC 9345 after 18 hrs by broth microdilution assay; conditions: ATCC 9345, 18 h
[5] = system: Candida albicans; test: Antifungal activity against Candida albicans ATCC 14053 after 18 hrs by broth microdilution assay; conditions: ATCC 14053, 18 h
[6] = system: Candida parapsilosis; test: Antifungal activity against Candida parapsilosis ATCC 22019 after 18 hrs by broth microdilution assay; conditions: Lodderomyces parapsilosis, ATCC 22019, 18 h
[7] = system: Pichia kudriavzevii; test: Antifungal activity against Candida krusei ATCC 6258 after 18 hrs by broth microdilution assay; conditions: ATCC 6258, 18 h
[8] = system: Bacillus cereus; test: Antibacterial activity against Bacillus cereus ATCC 7064 after 18 hrs by broth microdilution assay; conditions: ATCC 7064, 18 h

SMILES | MIC [1] [µg/mL] | MIC [2] [µg/mL] | MIC [3] [µg/mL] | MIC [4] [µg/mL] | MIC [5] [µg/mL] | MIC [6] [µg/mL] | MIC [7] [µg/mL] | MIC [8] [µg/mL]
Cc1cc(/C=N/n2cc(C(=O)c3ccccc3)c(-c3ccccc3)nc2=O)c(O)c(/C=N/n2cc(C(=O)c3ccccc3)c(-c3ccccc3)nc2=O)c1 | 20 (≈ 28.1 µM) | 20 (≈ 28.1 µM) | 40 (≈ 56.3 µM) | 20 (≈ 28.1 µM) | 40 (≈ 56.3 µM) | 40 (≈ 56.3 µM) | 40 (≈ 56.3 µM) | 80 (≈ 113 µM)
CC1(C)S[C@@H]2[C@H](NC(=O)[C@H](N)c3ccccc3)C(=O)N2[C@H]1C(=O)O [AMPICILLIN] |  |  |  | 10 (≈ 28.6 µM) |  |  |  | 5 (≈ 14.3 µM)
OC(Cn1cncn1)(Cn1cncn1)c1ccc(F)cc1F [FLUCONAZOLE] |  |  |  |  |  |  | 10 (≈ 32.7 µM) | 
